From patent publication US9469650B2, “Melampomagnolide B derivatives” (BOARD OF TRUSTEES OF THE UNIVERSITY OF ARKANSAS, priority 2013, dated 2016)
Read-outs that look alike come from different tables or passages of the source.

Experiments:
RXF 393 = assay: panel of 60 human tumor cell lines, growth inhibition (Renal Cancer); conditions: RXF 393
OVCAR-3 = assay: panel of 60 human tumor cell lines, growth inhibition (Ovarian Cancer); conditions: OVCAR-3
HCT-15 = assay: panel of 60 human tumor cell lines, growth inhibition (Colon Cancer); conditions: HCT-15
UO-31 [1] = test system: UO-31
SNB-75 = assay: panel of 60 human tumor cell lines, growth inhibition (CNS Cancer); conditions: SNB-75
NCI-H322M = assay: panel of 60 human tumor cell lines, growth inhibition (Non-Small Cell Lung Cancer)
BT-549 = assay: panel of 60 human tumor cell lines, growth inhibition (Breast Cancer); conditions: BT-549
DU-145 = assay: panel of 60 human tumor cell lines, growth inhibition (Prostate Cancer); conditions: DU-145
786-0 = assay: panel of 60 human tumor cell lines, growth inhibition (Renal Cancer); conditions: 786-0
SK-OV-3 = assay: panel of 60 human tumor cell lines, growth inhibition (Ovarian Cancer); conditions: SK-OV-3
UACC-62 = assay: panel of 60 human tumor cell lines, growth inhibition (Melanoma); conditions: UACC-62
SK-MEL-2 = assay: as above; conditions: SK-MEL-2
MCF7 = assay: panel of 60 human tumor cell lines, growth inhibition (Breast Cancer); conditions: MCF7
M14 = assay: panel of 60 human tumor cell lines, growth inhibition (Melanoma); conditions: M14
HCT-116 = assay: panel of 60 human tumor cell lines, growth inhibition (Colon Cancer); conditions: HCT-116
NCI-H226 = assay: panel of 60 human tumor cell lines, growth inhibition (Non-Small Cell Lung Cancer); conditions: NCI-H226
K-562 = assay: panel of 60 human tumor cell lines, growth inhibition (Leukemia); conditions: K-562
UO-31 [2] = assay: panel of 60 human tumor cell lines, growth inhibition (Renal Cancer); conditions: UO-31

C=C1C(=O)O[C@H]2[C@H]1CC/C(COC(=O)NCCO)=C\CC[C@@]1(C)O[C@@H]21 [JVM 2-50]
Percent Growth (RXF 393; Log10 Concentration −4.0): −68%
Percent Growth (RXF 393; Log10 Concentration −5.0): 20%
Percent Growth (RXF 393; Log10 Concentration −6.0): 98%
Percent Growth (RXF 393; Log10 Concentration −7.0): 93%
Percent Growth (RXF 393; Log10 Concentration −8.0): 91%
GI50 (RXF 393; NCI five dose): 4.14 µM
TGI (RXF 393; NCI five dose): 1.69E−5
Percent Growth (OVCAR-3; Log10 Concentration −4.0): −93%
Percent Growth (OVCAR-3; Log10 Concentration −5.0): 40%
Percent Growth (OVCAR-3; Log10 Concentration −6.0): 103%
Percent Growth (OVCAR-3; Log10 Concentration −7.0): 106%
Percent Growth (OVCAR-3; Log10 Concentration −8.0): 103%
GI50 (OVCAR-3; NCI five dose): 6.27 µM
TGI (OVCAR-3; NCI five dose): 1.99E−5
Percent Growth (HCT-15; Log10 Concentration −4.0): −71%
Percent Growth (HCT-15; Log10 Concentration −5.0): 16%
Percent Growth (HCT-15; Log10 Concentration −6.0): 94%
Percent Growth (HCT-15; Log10 Concentration −7.0): 95%
Percent Growth (HCT-15; Log10 Concentration −8.0): 93%
GI50 (HCT-15; NCI five dose): 3.7 µM
TGI (HCT-15; NCI five dose): 1.54E−5
CC50 (UO-31 [1]): 77.1 µM
Percent Growth (SNB-75; Log10 Concentration −4.0): −20%
Percent Growth (SNB-75; Log10 Concentration −5.0): 68%
Percent Growth (SNB-75; Log10 Concentration −6.0): 79%
Percent Growth (SNB-75; Log10 Concentration −7.0): 79%
Percent Growth (SNB-75; Log10 Concentration −8.0): 70%
GI50 (SNB-75; NCI five dose): 16 µM
TGI (SNB-75; NCI five dose): 5.92E−5
Percent Growth (NCI-H322M; Log10 Concentration −4.0): 32%
Percent Growth (NCI-H322M; Log10 Concentration −5.0): 109%
Percent Growth (NCI-H322M; Log10 Concentration −6.0): 105%
Percent Growth (NCI-H322M; Log10 Concentration −7.0): 109%
Percent Growth (NCI-H322M; Log10 Concentration −8.0): 105%
GI50 (NCI-H322M; NCI five dose): 58.8 µM
TGI (NCI-H322M; NCI five dose): >1.00E−4
Percent Growth (BT-549; Log10 Concentration −4.0): −91%
Percent Growth (BT-549; Log10 Concentration −5.0): 21%
Percent Growth (BT-549; Log10 Concentration −6.0): 83%
Percent Growth (BT-549; Log10 Concentration −7.0): 91%
Percent Growth (BT-549; Log10 Concentration −8.0): 85%
GI50 (BT-549; NCI five dose): 3.26 µM
TGI (BT-549; NCI five dose): 1.53E−5
Percent Growth (DU-145; Log10 Concentration −4.0): −92%
Percent Growth (DU-145; Log10 Concentration −5.0): 60%
Percent Growth (DU-145; Log10 Concentration −6.0): 107%
Percent Growth (DU-145; Log10 Concentration −7.0): 106%
Percent Growth (DU-145; Log10 Concentration −8.0): 108%
GI50 (DU-145; NCI five dose): 11.6 µM
TGI (DU-145; NCI five dose): 2.47E−5
Percent Growth (786-0; Log10 Concentration −4.0): −74%
Percent Growth (786-0; Log10 Concentration −5.0): 59%
Percent Growth (786-0; Log10 Concentration −6.0): 97%
Percent Growth (786-0; Log10 Concentration −7.0): 97%
Percent Growth (786-0; Log10 Concentration −8.0): 91%
GI50 (786-0; NCI five dose): 11.7 µM
TGI (786-0; NCI five dose): 2.78E−5
CC50 (NCI/ADR-RES): > 100 µM
Percent Growth (SK-OV-3; Log10 Concentration −4.0): 23%
Percent Growth (SK-OV-3; Log10 Concentration −5.0): 106%
Percent Growth (SK-OV-3; Log10 Concentration −6.0): 103%
Percent Growth (SK-OV-3; Log10 Concentration −7.0): 103%
Percent Growth (SK-OV-3; Log10 Concentration −8.0): 92%
GI50 (SK-OV-3; NCI five dose): 47 µM
TGI (SK-OV-3; NCI five dose): >1.00E−4
Percent Growth (UACC-62; Log10 Concentration −4.0): −84%
Percent Growth (UACC-62; Log10 Concentration −5.0): 62%
Percent Growth (UACC-62; Log10 Concentration −6.0): 97%
Percent Growth (UACC-62; Log10 Concentration −7.0): 93%
Percent Growth (UACC-62; Log10 Concentration −8.0): 93%
GI50 (UACC-62; NCI five dose): 12 µM
TGI (UACC-62; NCI five dose): 2.65E−5
Percent Growth (SK-MEL-2; Log10 Concentration −4.0): −54%
Percent Growth (SK-MEL-2; Log10 Concentration −5.0): 83%
Percent Growth (SK-MEL-2; Log10 Concentration −6.0): 115%
Percent Growth (SK-MEL-2; Log10 Concentration −7.0): 116%
Percent Growth (SK-MEL-2; Log10 Concentration −8.0): 106%
GI50 (SK-MEL-2; NCI five dose): 18.5 µM
TGI (SK-MEL-2; NCI five dose): 4.18E−5
Percent Growth (HL-60(TB); Log10 Concentration −4.0): −48%
Percent Growth (HL-60(TB); Log10 Concentration −5.0): 9%
Percent Growth (HL-60(TB); Log10 Concentration −6.0): 111%
Percent Growth (HL-60(TB); Log10 Concentration −7.0): 109%
Percent Growth (HL-60(TB); Log10 Concentration −8.0): 106%
GI50 (HL-60(TB); NCI five dose): 3.99 µM
CC50 (HL-60(TB); read-out: LC50, NCI five dose): > 100 µM
Percent Growth (MCF7; Log10 Concentration −4.0): −59%
Percent Growth (MCF7; Log10 Concentration −5.0): 16%
Percent Growth (MCF7; Log10 Concentration −6.0): 84%
Percent Growth (MCF7; Log10 Concentration −7.0): 89%
Percent Growth (MCF7; Log10 Concentration −8.0): 87%
GI50 (MCF7; NCI five dose): 3.16 µM
TGI (MCF7; NCI five dose): 1.61E−5
Percent Growth (M14; Log10 Concentration −4.0): −57%
Percent Growth (M14; Log10 Concentration −5.0): 56%
Percent Growth (M14; Log10 Concentration −6.0): 92%
Percent Growth (M14; Log10 Concentration −7.0): 97%
Percent Growth (M14; Log10 Concentration −8.0): 91%
GI50 (M14; NCI five dose): 11.2 µM
TGI (M14; NCI five dose): 3.11E−5
Percent Growth (HCT-116; Log10 Concentration −4.0): −75%
Percent Growth (HCT-116; Log10 Concentration −5.0): 15%
Percent Growth (HCT-116; Log10 Concentration −6.0): 90%
Percent Growth (HCT-116; Log10 Concentration −7.0): 96%
Percent Growth (HCT-116; Log10 Concentration −8.0): 93%
GI50 (HCT-116; NCI five dose): 3.43 µM
TGI (HCT-116; NCI five dose): 1.48E−5
CC50 (HCT-116; read-out: LC50, NCI five dose): 53.2 µM
Percent Growth (NCI-H226; Log10 Concentration −4.0): −37%
Percent Growth (NCI-H226; Log10 Concentration −5.0): 67%
Percent Growth (NCI-H226; Log10 Concentration −6.0): 91%
Percent Growth (NCI-H226; Log10 Concentration −7.0): 96%
Percent Growth (NCI-H226; Log10 Concentration −8.0): 93%
GI50 (NCI-H226; NCI five dose): 14.6 µM
TGI (NCI-H226; NCI five dose): 4.43E−5
Percent Growth (K-562; Log10 Concentration −4.0): −25%
Percent Growth (K-562; Log10 Concentration −5.0): 23%
Percent Growth (K-562; Log10 Concentration −6.0): 100%
Percent Growth (K-562; Log10 Concentration −7.0): 110%
Percent Growth (K-562; Log10 Concentration −8.0): 119%
GI50 (K-562; NCI five dose): 4.51 µM
TGI (K-562; NCI five dose): 3.02E−5
Percent Growth (UO-31 [2]; Log10 Concentration −4.0): −65%
Percent Growth (UO-31 [2]; Log10 Concentration −5.0): 67%
Percent Growth (UO-31 [2]; Log10 Concentration −6.0): 96%
Percent Growth (UO-31 [2]; Log10 Concentration −7.0): 99%
Percent Growth (UO-31 [2]; Log10 Concentration −8.0): 95%
GI50 (UO-31 [2]; NCI five dose): 13.5 µM
TGI (UO-31 [2]; NCI five dose): 3.23E−5
